Columns and labels:
HSC-iNKT cells [1] = assay: GCV in vitro killing assay; format: cell-based, human; settings: GCV 0-50 μM, 4 days
Method: (§1) To increase the safety profile of HSC-iNKT cell product, we included an sr39TK PET imaging/suicide gene in the lentiviral vector, which allows for the in vivo monitoring of these cells using PET imaging and the elimination of these cells through ganciclovir (GCV)-induced depletion in case of an adverse event (FIGS S1A and 1B in Li et al.).
For GCV in vitro killing assays, HSC-iNKT cells were cultured in C10 medium in the presence of titrated amount of GCV (0-50 μM) for 4 days; live HSC-iNKT cells were then counted using a hematocytometer (VWR) via Trypan Blue staining (Fisher Scientific).

HSC-iNKT cells [2] = assay: GCV in vivo killing assay, NSG xenograft mouse model; set-up: species or system human cells in NSG mice; settings: GCV i.p. 50 mg/kg per day, 5 days
Method: as §1
GCV in vivo killing assay was performed using an NSG xenograft mouse model. NSG mice received i.v. injection of 1×10^7 HSC-iNKT cells on day 0, followed by i.p. injection of GCV for 5 consecutive days (50 mg/kg per injection per day). On day 5, mice were terminated. Multiple tissues (i.e., blood, spleen, liver, and lung) were collected and processed for flow cytometry analysis to detect tissue-infiltrating HSC-iNKT cells (identified as iNKT TCR^+CD45^+), following established protocols (Li et al., 2021b; Y. R. Li et al., 2022; Zhu et al., 2019).

Nc1nc(O)c2ncn(COC(CO)CO)c2n1 [GCV, Ganciclovir]
killing of HSC-iNKT cells in cell culture (HSC-iNKT cells [1]): effective killing
depletion of HSC-iNKT cells from blood, liver, spleen and lung (HSC-iNKT cells [2]): efficient depletion
